Test results taken from PubChem BioAssay (NCI).
Values joined by “and” are separate entries in the source; they are usually repeats but may differ in a detail not shown here. Identical values can stand only once.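 All cell lines were grown in 96-well plates and treated with compound for 48 hours. GI50 = concentration required for 50% inhibition of growth. The concentration for full growth arrest is given as TGI.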

Tests used:
Assay in all cases: inhibition of tumour cell growth, NCI panel, 48 h
[1] = tested on: LOX IMVI melanoma
[2] = tested on: NCI-H23 lung
[3] = tested on: OVCAR-3 ovarian
[4] = tested on: RXF 393 renal
[5] = tested on: SK-MEL-2 melanoma
[6] = tested on: SNB-19 CNS
[7] = tested on: UACC-62 melanoma
[8] = tested on: A498 renal
[9] = tested on: DU-145 prostate
[10] = tested on: NCI/ADR-RES ovarian

CC(=O)[CH-]C(C)=O.CC(=O)[CH-]C(C)=O.[Cl-].[O]=[V]
GI50 [1]: 14.9 µM
TGI [1]: 44.5 µM
GI50 [2]: 14.2 µM
TGI [2]: 34.5 µM
GI50 [3]: 25.5 µM
TGI [3]: 51.6 µM
GI50 [4]: 10.9 µM
TGI [4]: 24.6 µM
GI50 [5]: 26.8 µM
TGI [5]: 77.1 µM
GI50 [6]: 39.9 µM
TGI [6]: > 100 µM
GI50 [7]: 20 µM
TGI [7]: 59.1 µM

CCC[CH2][Sn]1([CH2]CCC)[O]CC[S]1
GI50 [1]: 0.459 µM
TGI [1]: 1.7 µM
GI50 [2]: 0.398 µM
TGI [2]: 1.82 µM
GI50 [3]: 0.848 µM
TGI [3]: 2.13 µM
GI50 [4]: 0.156 µM
TGI [4]: 0.332 µM
GI50 [5]: 0.298 µM
TGI [5]: 1.01 µM
GI50 [6]: 0.446 µM
TGI [6]: 1.6 µM
GI50 [7]: 0.392 µM
TGI [7]: 1.56 µM

C[N+](C)(C)C1CC([N+](C)(C)C)C2c3ccccc3C21 (centres undefined)
TGI [8]: > 100 µM
TGI [1]: > 100 µM
TGI [2]: > 100 µM
TGI [3]: > 100 µM
TGI [4]: > 100 µM
TGI [6]: > 100 µM
TGI [7]: > 100 µM

C1C[OH+]CCNCC[OH+]CC[OH+]CCN1.N.[Cl-].[Pt+4]
GI50 [8]: 64.6 µM
TGI [8]: > 100 µM
GI50 [1]: 33.2 µM
TGI [1]: > 100 µM
GI50 [2]: 27.1 µM
TGI [2]: > 100 µM
GI50 [3]: 89.1 µM
TGI [3]: > 100 µM
GI50 [4]: 22.8 µM
TGI [4]: 90.3 µM
GI50 [5]: 47.2 µM
TGI [5]: > 100 µM
GI50 [6]: > 100 µM
TGI [6]: > 100 µM
GI50 [7]: 31.6 µM
TGI [7]: > 100 µM

O=C1c2cc3c(cc2-c2c1c1ccc(F)cc1c(=O)n2C[C@H](O)[C@H](O)[C@H](O)CO)OCO3
GI50 [8]: 0.142 µM
TGI [8]: 0.327 µM
GI50 [9]: 0.199 µM
TGI [9]: 1.59 µM
GI50 [2]: 0.129 µM
TGI [2]: 0.482 µM
GI50 [10]: 0.207 µM
TGI [10]: 2.14 µM
GI50 [3]: 0.167 µM
TGI [3]: 0.431 µM
GI50 [4]: 0.193 µM
TGI [4]: 0.502 µM
GI50 [5]: 0.233 µM
TGI [5]: 0.596 µM
GI50 [6]: 0.0927 µM
TGI [6]: > 100 µM
GI50 [7]: 0.04 µM
TGI [7]: 0.195 µM

O=C(O)CN1C(=O)CN=C(c2ccccn2)c2cc(Cl)ccc21
TGI [8]: > 100 µM
TGI [9]: > 100 µM
TGI [1]: > 100 µM
TGI [10]: > 100 µM
TGI [3]: > 100 µM
TGI [4]: > 100 µM
TGI [5]: > 100 µM
TGI [6]: > 100 µM
TGI [7]: > 100 µM

CCN1C(=O)N(CC)C2C1NN=c1s/c(=C\c3ccc(C(F)(F)F)cc3)c(=O)n12 (centres undefined)
GI50 [8]: 0.164 µM
TGI [8]: 0.719 µM
GI50 [9]: 0.41 µM
TGI [9]: > 32.1 µM
GI50 [1]: 0.483 µM
TGI [1]: > 34.6 µM
GI50 [2]: 0.585 µM
TGI [2]: > 64.4 µM
GI50 [10]: 0.291 µM
GI50 [3]: 0.252 µM
TGI [3]: 0.635 µM
GI50 [5]: 0.859 µM
TGI [5]: > 52.3 µM
GI50 [6]: 0.647 µM
TGI [6]: > 44.8 µM
GI50 [7]: 0.577 µM
TGI [7]: > 44.7 µM

O=[N+]([O-])c1cc(I)cc(/C=N/NS(=O)(=O)c2ccc(Cl)cc2)c1O
TGI [8]: 58.8 µM
TGI [1]: 36.5 µM
TGI [2]: 34.2 µM
TGI [3]: 36.1 µM
TGI [4]: 45.4 µM
TGI [5]: 42.7 µM
TGI [6]: > 100 µM
TGI [7]: 57.6 µM

O=C1OC(c2ccc(Cl)cc2)=N/C1=C\c1ccccc1
TGI [9]: > 100 µM
TGI [1]: > 100 µM
TGI [2]: > 100 µM
TGI [10]: > 100 µM
TGI [3]: > 100 µM
TGI [4]: > 100 µM
TGI [5]: > 100 µM
TGI [6]: > 100 µM
TGI [7]: > 100 µM

NNc1nc2ccccc2o1
TGI [8]: > 100 µM
TGI [9]: > 100 µM
TGI [1]: > 100 µM
TGI [2]: > 100 µM
TGI [10]: > 100 µM
TGI [4]: > 100 µM
TGI [5]: > 100 µM
TGI [6]: > 100 µM
TGI [7]: > 100 µM

O=C(O)CCSC(=O)Nc1cccc2ccccc12
TGI [8]: > 100 µM
TGI [1]: > 100 µM
TGI [2]: > 100 µM
TGI [3]: > 100 µM
TGI [4]: > 100 µM
TGI [6]: > 100 µM
TGI [7]: > 100 µM

Brc1ccc(C=NC23CC4CC(CC(C4)C2)C3)cc1
TGI [8]: > 100 µM
TGI [1]: > 100 µM
TGI [2]: > 100 µM
TGI [3]: > 100 µM
TGI [4]: > 100 µM
TGI [5]: > 100 µM
TGI [6]: > 100 µM
TGI [7]: > 100 µM

CC[O-].CC[O-].O=C([CH-]C(=O)c1ccccc1)CCCCCCC(=O)[CH-]C(=O)c1ccccc1.[Ti+4]
GI50 [8]: > 100 µM
TGI [8]: > 100 µM
GI50 [1]: > 100 µM
TGI [1]: > 100 µM
GI50 [2]: > 100 µM
TGI [2]: > 100 µM
GI50 [3]: > 100 µM
TGI [3]: > 100 µM
GI50 [4]: > 100 µM
TGI [4]: > 100 µM
GI50 [5]: > 100 µM
TGI [5]: > 100 µM
GI50 [6]: > 100 µM
TGI [6]: > 100 µM
GI50 [7]: > 100 µM
TGI [7]: > 100 µM

CCCCC(OC(=O)c1ccc(N)cc1)C(=O)Nc1nc(CC(=O)OCC)cs1 (centres undefined)
GI50 [8]: 57.4 µM
TGI [8]: > 100 µM
GI50 [9]: 36 µM
TGI [9]: > 100 µM
GI50 [1]: 39 µM
TGI [1]: > 100 µM
GI50 [10]: 33.9 µM
TGI [10]: > 100 µM
GI50 [3]: 23.5 µM
TGI [3]: 82 µM
GI50 [4]: 38.1 µM
TGI [4]: > 100 µM
GI50 [5]: 25.7 µM
TGI [5]: 77.4 µM
GI50 [6]: 49.9 µM
TGI [6]: > 100 µM
GI50 [7]: 51.6 µM
TGI [7]: > 100 µM

O=C(CCCC(=O)N/N=C/c1cc(Cl)ccc1O)N/N=C\c1cc(Cl)ccc1O
GI50 [8]: 55 µM
TGI [8]: > 100 µM
GI50 [9]: 6.75 µM
TGI [9]: > 100 µM
GI50 [1]: 1.69 µM
TGI [1]: 25.4 µM
GI50 [2]: 11.9 µM
TGI [2]: > 100 µM
GI50 [10]: 3.44 µM
TGI [10]: > 100 µM
GI50 [3]: 0.847 µM
TGI [3]: > 100 µM
GI50 [5]: > 100 µM
TGI [5]: > 100 µM
GI50 [6]: 4.42 µM
TGI [6]: > 100 µM

Cc1ccc(/C=N/NS(=O)(=O)c2ccccc2)cc1C
TGI [8]: > 100 µM
TGI [1]: > 100 µM
TGI [2]: > 100 µM
TGI [3]: > 100 µM
TGI [4]: > 100 µM
TGI [5]: > 100 µM
TGI [7]: > 100 µM

CC(C)CCCCCCCCCCCCC(=O)NCC(=O)NC1C(C)OC(Nc2ncnc3nc[nH]c23)C(O)C1O (centres undefined)
GI50 [1]: 0.0002 µM
GI50 [2]: 0.00875 µM
TGI [2]: 0.172 µM
TGI [10]: 0.0716 µM
TGI [3]: 0.0024 µM
GI50 [4]: 0.00101 µM
TGI [4]: 0.0369 µM
GI50 [5]: 0.0183 µM
GI50 [6]: 0.00845 µM
GI50 [7]: 0.000425 µM and 0.000705 µM
TGI [7]: 0.00892 µM and 0.0226 µM

CCOC(=O)CNC(=O)OCc1ccccc1
TGI [8]: > 100 µM
TGI [1]: > 100 µM
TGI [2]: > 100 µM
TGI [3]: > 100 µM
TGI [5]: > 100 µM
TGI [6]: > 100 µM
TGI [7]: > 100 µM

CCN(CC)CCCNc1n[n+]([O-])c2ccccc2[n+]1[O-]
TGI [8]: 16.6 µM
TGI [9]: 66.9 µM
TGI [2]: 46.9 µM
TGI [10]: > 100 µM
TGI [4]: 76.2 µM
TGI [5]: 21.5 µM
TGI [6]: > 100 µM
TGI [7]: 26 µM
